From patent US4247542A, “A-40104 Antibiotics and process for production thereof” (priority 1978, dated 1981)
≈ marks a conversion by molar mass, not a printed value.

How the values were obtained:
Eubacterium aerofaciens = experiment: standard agar-dilution test, anaerobic bacteria; assay type: cell-based; conditions: Collinsella aerofaciens, read after 24 hours
Text: Table VIII summarizes the activity of A-40104 factor A, as determined by the standard agar-dilution test.
*MIC determined by the agardilution method. Endpoints were read after 24

Mycoplasma gallisepticum = experiment: in vitro broth-dilution MIC, mycoplasma; assay type: cell-based
Text: (§1) The minimal inhibitory concentrations (MIC's) of A-40104 factor A; 19,20-dihydro-A-40104 factor A; and the tetraacetyl derivative of A-40104A against various mycoplasma species, as determined by in vitro broth-dilution studies, are summarized in Table IX.

Mycoplasma synoviae = experiment: in vitro broth-dilution MIC, mycoplasma; assay type: cell-based
Text: as §1

[1] = system: Pasteurella multocida (turkey); experiment: standard in vitro test against Pasteurella; assay type: cell-based
Text: Another veterinary aspect of this invention is the activity of the A-40104 antibiotics against Pasteurella species. P. multocida, for example, is a causative agent of respiratory infection in cattle, poultry, and swine. P. hemolytica is a major cause of respiratory disease in cattle. The activity of A-40104 factor A and its dihydro derivative against Pasteurella, as determined by standard in vitro tests, is summarized in Table X.

powdery mildew [2] = experiment: control of powdery mildew on barley plants; assay type: in vivo; conditions: soil drench at 100 ppm
Text: (§2) The A-40104 antibiotics are also active against plant pathogens. […] The systemic activity of these antibiotics is especially advantageous in the control of plant pathogens or Spiroplasmas.

powdery mildew [3] = experiment: control of powdery mildew on bean plants; assay type: in vivo; conditions: soil drench at 100 ppm
Text: as §2

Spiroplasma citri = experiment: in vitro test against Spiroplasma citri; assay type: cell-based; conditions: levels as low as, read-out: level inhibiting S. citri
Text: Another important aspect of this invention is the activity of the A-40104 antibiotics against Spiroplasmas. Spiroplasma citri is the causative agent of citrus-stubborn disease; another Spiroplasma, corn-stunt Spiroplasma, affects the growth of corn. In in vitro tests against Spiroplasma citri A-40104 factor A and its dihydro derivative inhbit S. citri when applied at levels as low as 0.01 ppm.

swine dysentery = conditions: W. E. Brown et al. U.S. Pat. No. 4,041,175; cited from earlier work

SMILES | MIC (Eubacterium aerofaciens) [µg/mL] | MIC (Mycoplasma gallisepticum) [µg/mL] | MIC (Mycoplasma synoviae) [µg/mL] | MIC [1] [µg/mL] | solubility in chloroform (solubility; chloroform) | solubility in alcohols (solubility; ethanol) | solubility in alcohols (solubility; methanol) | solubility in water (solubility; water) | control of powdery mildew (powdery mildew [2]) | control of powdery mildew (powdery mildew [3]) | MIC (Spiroplasma citri) [µg/mL] | effect in swine dysentery (swine dysentery)
C=CC1(C)CC(OC(=O)CO[C@@H]2OC[C@@H](O)[C@H](O)[C@H]2O)C2(C)C(C)CCC3(CCC(=O)C32)C(C)C1O (stereo partly drawn) [A-40104 factor A, β,D-xylopyranosyl acetal derivative of pleuromutilin] | 16 (≈ 31.3 µM) | < 0.78 | < 0.78 | 12.5 (≈ 24.5 µM) | partially soluble | soluble | soluble | insoluble | control of powdery mildew is obtained | control of powdery mildew is obtained | – | –
CCC1(C)CC(OC(=O)CO[C@@H]2OC[C@@H](O)[C@H](O)[C@H]2O)C2(C)C(C)CCC3(CCC(=O)C32)C(C)C1O (stereo partly shown) [19,20-dihydro-A-40104 factor A, 19,20-Dihydro-A-40104 Factor A] | – | – | – | 12.5 (≈ 24.4 µM) | – | – | – | – | – | – | ≤ 0.01 | –
C=C[C@]1(C)C[C@@H](OC(=O)CO)[C@]2(C)[C@H](C)CC[C@]3(CCC(=O)[C@H]32)[C@@H](C)[C@@H]1O [A-40104 factor C, pleuromutilin] | – | – | – | – | – | – | – | – | – | – | – | effective in the treatment of swine dysentery
